Measurements: patent EP0306251A2, “Azolidinedione derivatives” (PFIZER INC., priority 1987, dated 1989)
Each block holds one molecule with its values, some of them ahead of it.

Assays:
[1] = molecular target: T1, partially purified aldose reductase enzyme obtained from human placenta (Homo sapiens, UniProt P15121); assay: inhibition of aldose reductase enzyme activity (procedure of Hayman et al., modified by Sestanj et al.); format: biochemical; details: 10^-5M
T1 construct: partially purified aldose reductase enzyme obtained from human placenta; from tissue; host or cells: human placenta
Procedure: The following spiro-3-heteroazolone compounds of Examples 4A, 4B, 6-9, 10A, 10B and 14, respectively, were tested for their ability to reduce or inhibit aldose reductase enzyme activity via the procedure of S. Hayman et al., as described in the Journal of Biological Chemistry, Vol. 240, p. 877 (1965) and as modified by K. Sestanj et al. in U.S. Patent No. 3,821,383. In every case, the substrate .employed was partially purified aldose reductase enzyme obtained from human placenta.

[2] = test system: sorbitol accumulation in the sciatic nerve and lens of streptozotocinized (i.e., diabetic) rats; assay: inhibition of sorbitol accumulation in sciatic nerve and lens of streptozotocinized rats; format: in vivo; details: for Percent Inhibition (%) Lens / Percent Inhibition (%) Sciatic Nerve: sorbitol measured at 27 hours
Procedure: The following spiro-3-heteroazolone compounds of Examples 4A, 4B, 6 and 10A, respectively, were tested for their ability to reduce or inhibit sorbitol accumulation in the sciatic nerve and lens of streptozotocinized (i.e., diabetic) rats by the procedure essentially described in U.S. Patent No. 3,821,383. In the present study, the amount of sorbitol accumulation in the sciatic nerve and lens of each test animal was measured 27 hours after induction of diabetes. The compounds were then administered orally at the dose levels indicated at 4, 8 and 24 hours following the administration of streptozotocin. The results obtained in this manner are presented below in terms of percent inhibition (%) afforded by the test compound as compared to the case where no compound was administered (i.e., the untreated animal where sorbitol levels normally rise from approximately 50-100 mM/g. tissue to as high as 400 mM/g. tissue in the 27-hour test period): […]

[3] = 0.25 mg./kg. orally at 4, 8 and 24 hours after streptozotocin
[4] = 5.0 mg./kg. orally at 4, 8 and 24 hours after streptozotocin
[5] = 1.0 mg./kg. orally at 4, 8 and 24 hours after streptozotocin
[6] = 0.1 mg./kg. orally at 4, 8 and 24 hours after streptozotocin

inhibition at 10 µM [1]: 83%
SMILES: C[C@@H]1C[C@]2(NC(=O)NC2=O)c2cc(Cl)cnc2O1 (racemic) [Product of Example 4A, (±)-cis-8'-chloro-2',3'-dihydro-2'-methyl-spiro-[imidazolidine-4,4'-4'H-pyrano[2,3-b]pyridine]-2,5-dione]
Percent Inhibition (%) Lens [2, 3]: 22% | Percent Inhibition (%) Lens [2, 4]: 89% | Percent Inhibition (%) Sciatic Nerve [2, 3]: 34% | Percent Inhibition (%) Sciatic Nerve [2, 4]: 98%

inhibition at 10 µM [1]: 77%
SMILES: CC1CC2(NC(=O)NC2=O)c2cc(Cl)cnc2O1 (racemic) [Product of Example 4B, (±)-trans-6'-chloro-2',3'-dihydro-2'-methyl-spiro-[imidazolidine-4,4'-4'H-pyrano[2,3-b]pyridine]-2,5-dione]
Percent Inhibition (%) Lens [2, 3]: 32% | Percent Inhibition (%) Sciatic Nerve [2, 3]: 13%

inhibition at 10 µM [1]: 80%
SMILES: C[C@@H]1C[C@]2(NC(=O)NC2=O)c2cc(Br)cnc2O1 (racemic) [Product of Example 6, (±)-cis-6'-bromo-2',3'-dihydro-2'-methyl-spiro-[imidazolidine-4,4'-4'H-pyrano[2,3-b]pyridine]-2,5-dione]
Percent Inhibition (%) Lens [2, 5]: 67% | Percent Inhibition (%) Sciatic Nerve [2, 5]: 73%

inhibition at 10 µM [1]: 60%
SMILES: O=C1NC(=O)C2(CCOc3ncc(Cl)cc32)N1 (racemic) [Product of Example 7, (±)-6-chloro-2',3'-dihydro-spiro-[imidazolidine-4,4'-4'H-pyrano[2,3-b]pyridine]-2,5-dione]

inhibition at 10 µM [1]: 57%
SMILES: C[C@@H]1C[C@]2(NC(=O)NC2=O)c2cccnc2O1 (racemic) [Product of Example 8, (±)-cis-2',3'-dihydro-2'methyl-spiro-[imidazolidine-4, 4'-4'H-pyrano[2,3-b]pyridine]-2,5-dione]

inhibition at 10 µM [1]: 77%
SMILES: C[C@@H]1C[C@]2(NC(=O)NC2=O)c2cc(F)cnc2O1 (racemic) [Product of Example 9, (±)-cis-6'-fluoro-2',3'-dihydro-2'-methyl-spiro-[imidazolidine-4,4'-4H-pyrano-[2,3-b]pyridine]-2,5-dione]

inhibition at 10 µM [1]: 100%
SMILES: C[C@@H]1C[C@]2(NC(=O)NC2=O)c2cc(Cl)cnc2O1 [Product of Example 10A, (4'S)(2'R)-6'-chloro-2',3'-dihydro-2'-methyl-spiro-[imidazolidine-4,4'-4'H-pyrano[2,3-b]pyridine]-2,5-dione]
Percent Inhibition (%) Lens [2, 6]: 33% | Percent Inhibition (%) Lens [2, 5]: 73% | inhibit the formation of sorbitol levels in both the sciatic nerve and lens of diabetic rats ([2]; oral route, dose levels ranging from 0.1-10.0 mg./kg., sciatic nerve and lens): significantly high degree | Percent Inhibition (%) Sciatic Nerve [2, 6]: 43% | Percent Inhibition (%) Sciatic Nerve [2, 5]: 78%

inhibition at 10 µM [1]: 100%
SMILES: C[C@H]1C[C@@]2(NC(=O)NC2=O)c2cc(Cl)cnc2O1 [Product of Example 10B, (2'S)(4'R)-6'-chloro-2',3^1-dihydro-2'-methyl-spiro-[imidazolidine-4,4'-4'H-pyrano[2,3-b]pyridine]-2,5-dione]

inhibition at 10 µM [1]: 79%
SMILES: C[C@@H]1C[C@]2(NC(=O)NC2=O)c2cc(Cl)c[n+]([O-])c2O1 [Product of Example 14, (4'S)(2'R)-6'-chloro-2',3'-dihydro-2'-methyl-spiro-[imidazolidine-4,4'-4'H-pyrano[2,3-b]pyridine]-2,5-dione-8'-oxide]
